Where two headings read alike, the source gives them in different places.

For assay [1], the target named is T1, PRMT5 (Homo sapiens, UniProt O14744).
T1 construct: purchased Viva (custom protein)
Description: PRMT5 biochemical IC50 assay with MTA as cofactor. The settings on record: PRMT5, MTA as cofactor; read-out: MTA IC50.

Assay [2] has as its system HAP1 MTAP-intact cell line. Kind of assay: SDMA in-cell western assay, HAP1 MTAP-intact. The format is cell-based. The settings on record: Homo sapiens. The essentials: (§1)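 Readout: in-cell western detection of SDMA. Cells: HAP1 expressing endogenous MTAP and an MTAP-null HAP1 counterpart. Output: IC50.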
Assay [3] has as its target T1, PRMT5. Description: PRMT5 biochemical IC50 assay with no cofactor. The settings on record: PRMT5, no cofactor; read-out: No Cofactor/rel IC50. From the text:
Table 1 indicates IC50 values (μM) against PRMT5 for exemplary compounds in the presence of SAM as cofactor, with no cofactor, and with MTA as cofactor, respectively (columns 4-6). […] Ki values can be calculated from the IC50 values as described in the Examples section. As detailed in the Examples section, for the assay performed in the presence of SAM, IC50=Ki×1.5 (Ki=IC50/1.5).

Assay [4] relates to HAP1 MTAP-deleted cell line. Description: SDMA in-cell western assay, HAP1 MTAP-deleted. As to conditions: for IC50: Homo sapiens; for MTAP intact/deleted ratio: IC50 ratio HAP1 MTAP-intact / HAP1 MTAP-deleted, SDMA in-cell western. In kind it is cell-based. The essentials: as §1
The test system of assay [5] is HAP1 MTAP-deleted cell line. Kind of assay: Viability assay, MTAP-deleted cell line. The format is cell-based. From the text:
Table 1 additionally indicates IC50 values in a viability assay for the MTAP-deleted cell line (column 10), indicating the effect of treatment with compound on cell survival.

Assay [6] concerns the target T1, PRMT5. Kind of assay: PRMT5 biochemical IC50 assay with SAM as cofactor. The settings on record: PRMT5, SAM as cofactor; read-out: SAM IC50.
[7] abbreviates: HAP1, SDMA in-cell western, HAP1 MTAP-intact, read-out: MTAP HAP1 intact IC50.
Setting [8] is: HAP1, SDMA in-cell western, HAP1 MTAP-deleted, read-out: HAP1 MTAP deleted IC50.
Where [9] appears, read: Homo sapiens, HAP1, viability assay, MTAP-deleted cell line, read-out: HAP1 MTAP deleted viability.
Where [10] appears, read: HAP1, read-out: MTAP HAP1 intact IC50.
Where [11] appears, read: HAP1, read-out: HAP1 MTAP deleted IC50.
[12] abbreviates: Homo sapiens, HAP1, read-out: HAP1 MTAP deleted viability.

T1 sequence (O14744 whole entry): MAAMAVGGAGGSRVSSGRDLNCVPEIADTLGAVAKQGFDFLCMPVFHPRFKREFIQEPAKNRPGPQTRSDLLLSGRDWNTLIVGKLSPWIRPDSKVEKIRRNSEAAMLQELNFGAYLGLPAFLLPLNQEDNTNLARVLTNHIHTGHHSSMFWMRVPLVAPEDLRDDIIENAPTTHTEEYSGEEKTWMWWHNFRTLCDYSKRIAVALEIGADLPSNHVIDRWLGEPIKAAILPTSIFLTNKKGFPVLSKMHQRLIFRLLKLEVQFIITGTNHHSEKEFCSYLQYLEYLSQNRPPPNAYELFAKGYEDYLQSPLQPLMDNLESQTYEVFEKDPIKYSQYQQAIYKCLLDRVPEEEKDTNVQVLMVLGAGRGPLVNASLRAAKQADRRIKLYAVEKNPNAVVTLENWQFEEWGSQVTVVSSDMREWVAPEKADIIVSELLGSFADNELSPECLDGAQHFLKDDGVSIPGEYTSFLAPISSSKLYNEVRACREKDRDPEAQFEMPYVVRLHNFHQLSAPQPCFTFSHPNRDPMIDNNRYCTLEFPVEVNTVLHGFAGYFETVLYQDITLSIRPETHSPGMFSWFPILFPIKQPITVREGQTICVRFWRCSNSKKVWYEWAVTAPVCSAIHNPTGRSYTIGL
T1 sequence (Q9BQA1 whole entry partner): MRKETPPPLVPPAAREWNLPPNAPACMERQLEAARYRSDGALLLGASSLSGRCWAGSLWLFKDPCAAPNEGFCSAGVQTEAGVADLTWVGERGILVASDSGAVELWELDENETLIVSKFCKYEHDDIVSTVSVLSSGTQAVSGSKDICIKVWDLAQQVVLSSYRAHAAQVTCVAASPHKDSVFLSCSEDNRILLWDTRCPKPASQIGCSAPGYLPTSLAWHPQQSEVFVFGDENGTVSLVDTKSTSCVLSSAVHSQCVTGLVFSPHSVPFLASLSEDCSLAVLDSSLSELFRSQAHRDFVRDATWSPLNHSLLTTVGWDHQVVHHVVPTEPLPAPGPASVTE

As to `C[C@H]1CC[C@H]2CCCC[C@H]2N1C(=O)C(=O)Nc1cncc(C(N)=O)c1` (single isomer, unassigned) [Compound 245], the IC50 was under 50 nM on PRMT5 [1]; over 1000 nM in assay [2] (setting [7]); 50 to 500 nM on PRMT5 [3]; 100 to 1000 nM in assay [4] (setting [8]); 1000 to 10000 nM in assay [5] (setting [9]); 50 to 500 nM on PRMT5 [6]. Also, the MTAP intact/deleted ratio result in assay [4] is “A (an IC50 ratio greater than or equal to 10 fold)”.

For `Cc1cc(NC(=O)C(=O)N2C[C@H](C)CC[C@H]2c2ccccc2)cnc1C` (single isomer, unassigned) [Compound 254], the IC50 at PRMT5 [1] is under 50 nM; in assay [2] (setting [7]), over 1000 nM; on PRMT5 [3] it was 50 to 500 nM; in assay [4] (setting [8]) it was 100 to 1000 nM; in assay [5] (setting [9]), 1000 to 10000 nM; at PRMT5 [6], under 50 nM. Further, the MTAP intact/deleted ratio result in assay [4] is on record as “A (an IC50 ratio greater than or equal to 10 fold)”.

Turning to `Cc1cc(NC(=O)C(=O)N2C[C@@H](C)CC[C@@H]2c2ccccc2)cnc1C` (single isomer, unassigned) [Compound 258], the IC50 is over 500 nM on PRMT5 [1]; over 1000 nM in assay [2] (setting [7]); over 500 nM on PRMT5 [3]; over 1000 nM in assay [4] (setting [8]); over 10000 nM in assay [5] (setting [9]); over 500 nM at PRMT5 [6]. Also, in assay [4], the MTAP intact/deleted ratio entry is reported as “C (an IC50 ratio of less than 3 fold)”.

As to `Cc1cc(NC(=O)C(=O)N2C[C@H](C)CC[C@H]2[C@H]2CC[C@H](C(C)(C)C)CC2)cnc1N` (single isomer, unassigned) [Compound 260], the IC50 at PRMT5 [1] is under 50 nM; in assay [2] (setting [7]) it was over 1000 nM; on PRMT5 [3], 50 to 500 nM; in assay [4] (setting [8]), 100 to 1000 nM; in assay [5] (setting [9]) it was 1000 to 10000 nM; on PRMT5 [6], 50 to 500 nM. Also, the MTAP intact/deleted ratio entry in assay [4] is “C (an IC50 ratio of less than 3 fold)”.

In the case of `C[C@H]1C[C@H](C)[C@H](c2ccccc2)N(C(=O)C(=O)Nc2cncc(C(N)=O)c2)C1` (single isomer, unassigned) [Compound 267, 5-(2-(3,5-dimethyl-2-phenylpiperidin-1-yl)-2-oxoacetamido)nicotinamide], the IC50 is under 50 nM on PRMT5 [1]; over 1000 nM in assay [2] (setting [7]); 50 to 500 nM on PRMT5 [3]; under 100 nM in assay [4] (setting [8]); 1000 to 10000 nM in assay [5] (setting [9]); under 50 nM at PRMT5 [6]. The MTAP intact/deleted ratio result in assay [4] is reported as “A (an IC50 ratio greater than or equal to 10 fold)”.

For `C[C@H]1CCC[C@@H](c2ccccc2)N1C(=O)C(=O)Nc1cncc(C(N)=O)c1` (single isomer, unassigned) [Compound 274], the IC50 is under 50 nM at PRMT5 [1]; over 1000 nM in assay [2] (setting [7]); 50 to 500 nM on PRMT5 [3]; 100 to 1000 nM in assay [4] (setting [8]); 1000 to 10000 nM in assay [5] (setting [9]); 50 to 500 nM at PRMT5 [6]. In assay [4], the MTAP intact/deleted ratio entry is “A (an IC50 ratio greater than or equal to 10 fold)”.

Consider `CC(=O)N[C@H]1CC[C@@H]([C@@H]2CC[C@@H](C)CN2C(=O)C(=O)Nc2cnc(N)c(C)c2)CC1` (single isomer, unassigned) [Compound 281], for which the IC50 at PRMT5 [1] was 50 to 500 nM; in assay [2] (setting [7]) it was over 1000 nM; at PRMT5 [3] it was over 500 nM; in assay [4] (setting [8]) it was 100 to 1000 nM; in assay [5] (setting [9]) it was over 10000 nM; at PRMT5 [6], over 500 nM. The MTAP intact/deleted ratio result in assay [4] was “A (an IC50 ratio greater than or equal to 10 fold)”.

For the compound `Cc1cc(NC(=O)C(=O)N2C[C@H](C)CC[C@H]2c2cccc(Cl)c2)cnc1N` (single isomer, unassigned) [Compound 283], the IC50 is over 500 nM at PRMT5 [1]; over 1000 nM in assay [2] (setting [7]); over 500 nM on PRMT5 [3]; over 1000 nM in assay [4] (setting [8]); over 10000 nM in assay [5] (setting [9]); over 500 nM on PRMT5 [6]. Moreover, the MTAP intact/deleted ratio result in assay [4] was “B (an IC50 ratio greater than or equal to 3 fold but lower than 10 fold)”.

As to `Cc1cc(NC(=O)C(=O)N2C[C@@H](C)CC[C@@H]2c2cccc(Cl)c2)cnc1N` (single isomer, unassigned) [Compound 284], the IC50 on PRMT5 [1] is under 50 nM; in assay [2] (setting [7]) it was 100 to 1000 nM; at PRMT5 [3], under 50 nM; in assay [4] (setting [8]) it was under 100 nM; in assay [5] (setting [9]), under 1000 nM; at PRMT5 [6] it was 50 to 500 nM. Besides, the MTAP intact/deleted ratio result in assay [4] is reported as “A (an IC50 ratio greater than or equal to 10 fold)”.

On to `COc1ncc(NC(=O)C(=O)N2C[C@@H](C)CC[C@@H]2c2ccc(O)cc2)cc1C(N)=O` (single isomer, unassigned) [Compound 288], for which the IC50 on PRMT5 [1] was under 50 nM; in assay [2] (setting [10]) it was 100 to 1000 nM; on PRMT5 [3] it was under 50 nM; in assay [4] (setting [11]) it was under 100 nM; in assay [5] (setting [12]), under 1000 nM; at PRMT5 [6], 50 to 500 nM. Moreover, in assay [4], the MTAP intact/deleted ratio result was “A (an IC50 ratio greater than or equal to 10 fold)”.

With `Cc1cc(NC(=O)C(=O)N2C[C@@H](C)CC[C@@H]2[C@H]2CC[C@@H](C(C)(C)C)CC2)cnc1N` (single isomer, unassigned) [Compound 290], the IC50 at PRMT5 [1] is over 500 nM; in assay [2] (setting [7]) it was over 1000 nM; on PRMT5 [3] it was over 500 nM; in assay [4] (setting [8]), over 1000 nM; in assay [5] (setting [9]), over 10000 nM; at PRMT5 [6], over 500 nM. For the same compound, the MTAP intact/deleted ratio entry in assay [4] was “C (an IC50 ratio of less than 3 fold)”.

In the case of `COc1ncc(NC(=O)C(=O)N2C[C@@H](C)CC[C@@H]2c2ccccc2)cc1C(N)=O` (single isomer, unassigned) [Compound 291], the IC50 on PRMT5 [1] was over 500 nM; in assay [2] (setting [10]), over 1000 nM; at PRMT5 [3], over 500 nM; in assay [4] (setting [11]), over 1000 nM; in assay [5] (setting [12]), over 10000 nM; on PRMT5 [6], over 500 nM. Further, in assay [4], the MTAP intact/deleted ratio result is given as “C (an IC50 ratio of less than 3 fold)”.

Take `COc1ncc(NC(=O)C(=O)N2C[C@H](C)CC[C@H]2c2ccc(O)cc2)cc1C(N)=O` (single isomer, unassigned) [Compound 292]: the IC50 at PRMT5 [1] is over 500 nM; in assay [2] (setting [10]), over 1000 nM; at PRMT5 [3], over 500 nM; in assay [4] (setting [11]) it was over 1000 nM; in assay [5] (setting [12]) it was over 10000 nM; at PRMT5 [6], over 500 nM. The MTAP intact/deleted ratio result in assay [4] is “C (an IC50 ratio of less than 3 fold)”.

With `Cc1cc([C@H]2CC[C@H](C)CN2C(=O)C(=O)Nc2cncc(C(N)=O)c2)ccc1F` (single isomer, unassigned) [Compound 293], the IC50 is under 50 nM on PRMT5 [1]; over 1000 nM in assay [2] (setting [7]); 50 to 500 nM on PRMT5 [3]; under 100 nM in assay [4] (setting [8]); 1000 to 10000 nM in assay [5] (setting [9]); under 50 nM at PRMT5 [6]. Further, the MTAP intact/deleted ratio result in assay [4] is on record as “A (an IC50 ratio greater than or equal to 10 fold)”.

For `COc1ncc(NC(=O)C(=O)N2CCCCC2C2CCCC2)cc1C(N)=O` (single isomer, unassigned) [Compound 294, 5-(2-(2-cyclopentylpiperidin-1-yl)-2-oxoacetamido)-2-methoxynicotinamide], the IC50 at PRMT5 [1] is under 50 nM; in assay [2] (setting [7]), over 1000 nM; at PRMT5 [3] it was 50 to 500 nM; in assay [4] (setting [8]) it was under 100 nM; in assay [5] (viability assay, MTAP-deleted cell line, read-out: HAP1 MTAP deleted viability), 1000 to 10000 nM; at PRMT5 [6], 50 to 500 nM. In assay [4], the MTAP intact/deleted ratio result is reported as “A (an IC50 ratio greater than or equal to 10 fold)”.

For the compound `Cc1cc(NC(=O)C(=O)N2C[C@H](C)CC[C@H]2c2cccnc2)cnc1N` (single isomer, unassigned) [Compound 301], the IC50 is under 50 nM at PRMT5 [1]; 100 to 1000 nM in assay [2] (setting [7]); 50 to 500 nM at PRMT5 [3]; under 100 nM in assay [4] (setting [8]); 1000 to 10000 nM in assay [5] (setting [9]); 50 to 500 nM on PRMT5 [6]. Moreover, the MTAP intact/deleted ratio entry in assay [4] was “B (an IC50 ratio greater than or equal to 3 fold but lower than 10 fold)”.

On to `COc1ncc(NC(=O)C(=O)N2C[C@@H](C)CC[C@@H]2c2cccs2)cc1C(N)=O` (single isomer, unassigned) [Compound 303], for which the IC50 on PRMT5 [1] is under 50 nM; in assay [2] (setting [7]) it was over 1000 nM; at PRMT5 [3], under 50 nM; in assay [4] (setting [8]), under 100 nM; in assay [5] (setting [9]), under 1000 nM; at PRMT5 [6], 50 to 500 nM. The MTAP intact/deleted ratio result in assay [4] is on record as “A (an IC50 ratio greater than or equal to 10 fold)”.

As to `COc1ncc(NC(=O)C(=O)N2C[C@H](C)CC[C@H]2C2CCCC2)cc1C(N)=O` (single isomer, unassigned) [Compound 306], the IC50 was under 50 nM on PRMT5 [1]; over 1000 nM in assay [2] (setting [7]); 50 to 500 nM on PRMT5 [3]; under 100 nM in assay [4] (setting [8]); 1000 to 10000 nM in assay [5] (setting [9]); 50 to 500 nM on PRMT5 [6]. Moreover, the MTAP intact/deleted ratio result in assay [4] was “A (an IC50 ratio greater than or equal to 10 fold)”.

The values are drawn from patent US11999727B2 (Tango Therapeutics, Inc., priority 2020, dated 2024).
